Measured values from patent US4363922A, “Esters of antibiotic nodusmicin” (priority 1981, dated 1982).
In brackets after ≈: the same amount, converted by molar mass. Read-outs that look alike come from different tables or passages of the source.

Experiments:
[1] = Solubility noted in the MIC determination; conditions: BHI broth
S.lutea UC-130 = assay: Dipped disc agar diffusion assay, S. lutea; conditions: Micrococcus luteus, UC130, 16 h
S.aureus UC 80 = assay: Dipped disc agar diffusion assay, S. aureus; conditions: for zone of inhibition at 1000 µg/mL: Staphylococcus aureus, UC80, 16 h
S.aureus UC-570 = assay: Minimum Inhibitory Concentration, microplate broth-dilution, S. aureus UC-570; conditions: Staphylococcus aureus
S.aureus UC-76 = assay: Minimum Inhibitory Concentration, microplate broth-dilution, S. aureus UC-76; conditions: for MIC: Staphylococcus aureus
S.pyrogenes UC-152 = assay: Minimum Inhibitory Concentration, microplate broth-dilution, S. pyrogenes UC-152
S.aureus UC-746 = assay: Minimum Inhibitory Concentration, microplate broth-dilution, S. aureus UC-746; conditions: Staphylococcus aureus
[2] = read-out: Agar Diffusion 1 mg./ml. S.lutea UC-130 (inhibition zone)
[3] = read-out: Agar Diffusion 1 mg./ml. S.aureus UC 80 (inhibition zone)
[4] = UC570, read-out: MIC S.aureus UC-570
[5] = UC76, read-out: MIC S.aureus UC-76
[6] = read-out: MIC S.pyrogenes UC-152
[7] = UC746, read-out: MIC S.aureus UC-746
[8] = read-out: Agar Diffusion 1 mg./ml. S.aureus UC 80 (inhibition zone), 1 mg./ml., 12.7 mm paper disc, 16 hours
[9] = UC570, read-out: MIC S.aureus UC-570, BHI broth, sensitive strain
[10] = UC76, read-out: MIC S.aureus UC-76, BHI broth, sensitive strain
[11] = read-out: MIC S.pyrogenes UC-152, BHI broth
[12] = UC746, read-out: MIC S.aureus UC-746, BHI broth, strain resistant to tetracycline

Row | MIC (S.aureus UC-570; [4]) [µg/mL] | MIC (S.aureus UC-76; [5]) [µg/mL] | MIC (S.pyrogenes UC-152; [6]) [µg/mL] | MIC (S.aureus UC-746; [7]) [µg/mL] | Structure (SMILES) | zone of inhibition at 1000 µg/mL (S.lutea UC-130; [2]) [mm] | zone of inhibition at 1000 µg/mL (S.aureus UC 80; [3]) [mm] | MIC (S.aureus UC-76; [10]) [µg/mL] | MIC (S.pyrogenes UC-152; [11]) [µg/mL] | other results
1 |  |  |  |  | COC1CC2C=CC3C4OC2(C(C)=CC(C)C(C(C)O)OC1=O)C3C(O)C(C)C4OC(=O)c1ccccc1 (stereo not shown) [9-O--benzoyl-, 9-O-benzoyl-nodusmicin] | 30 |  |  |  | insoluble [1]: insoluble; zone of inhibition at 1000 µg/mL (S.lutea UC-130; read-out: zone of inhibition, S. lutea): 30 mm
2 | 3.9 (≈ 7.32 µM) | 3.9 (≈ 7.32 µM) | 125 (≈ 235 µM) | 3.9 (≈ 7.32 µM) | COC1CC2C=CC3C4OC2(C(C)=CC(C)C(C(C)O)OC1=O)C3C(O)C(C)C4OC(=O)c1cccs1 (stereo not shown) [U-60,989, 9-O--Thiophene-2-carbonyl-] | 41 | 27 |  |  | 
3 |  |  |  |  | COC1CC2C=CC3C4OC2(C(C)=CC(C)C(C(C)O)OC1=O)C3C(O)C(C)C4OC(=O)c1cc([N+](=O)[O-])c[nH]1 (stereo not shown) [U-61,462, 9-O--4-Nitropyrrole-2-carbonyl-] | 36 |  | 15.6 (≈ 27.8 µM) | 125 (≈ 223 µM) | zone of inhibition at 1000 µg/mL (S.aureus UC 80; [8]): 20 mm; MIC (S.aureus UC-570; [9]): 31.2 µg/mL (≈ 55.7 µM); MIC (S.aureus UC-746; [12]): 31.2 µg/mL (≈ 55.7 µM)
4 |  |  |  |  | COC1CC2C=CC3C4OC2(C(C)=CC(C)C(C(C)OC(=O)c2ccccc2)OC1=O)C3C(O)C(C)C4O (stereo not shown) [18-O--benzoyl-, 18-O-benzoyl-nodusmicin] |  |  |  |  | insoluble [1]: insoluble
5 |  |  |  |  | COC1CC2C=CC3C4OC2(C(C)=CC(C)C(C(C)OC(=O)c2ccc[nH]2)OC1=O)C3C(O)C(C)C4O (stereo not shown) [U-60,907, 18-O--Pyrrole-2-carbonyl] | 33 |  | 7.8 (≈ 15.1 µM) | > 250 | zone of inhibition at 1000 µg/mL (S.aureus UC 80; [8]): 27 mm; MIC (S.aureus UC-570; [9]): 3.9 µg/mL (≈ 7.56 µM); MIC (S.aureus UC-746; [12]): 15.6 µg/mL (≈ 30.3 µM)
6 |  |  |  |  | COC1CC2C=CC3C4OC2(C(C)=CC(C)C(C(C)O)OC1=O)C3C(O)C(C)C4OC(=O)c1cccn1C (stereo not shown) [U-60,988, 9-O--N--Methylpyrrole-2-carbonyl-] | 24 |  | 250 (≈ 472 µM) | 125 (≈ 236 µM) | MIC (S.aureus UC-570; [9]): > 250 µg/mL; MIC (S.aureus UC-746; [12]): 250 µg/mL (≈ 472 µM)
7 |  |  |  |  | COC1CC2C=CC3C4OC2(C(C)=CC(C)C(C(C)O)OC1=O)C3C(O)C(C)C4OC(=O)c1ccc[nH]1 (stereo not shown) [U-59,760, 9-O-pyrrole-2-carbonyl ester of nodusmicin, reference compound] | 44 |  | 0.0625 (≈ 0.121 µM) | > 125 | Agar Diffusion 1 mg./ml. S.aureus UC 80 (inhibition zone) (S.aureus UC 80; 1 mg./ml., 12.7 mm paper disc, 16 hours): 38; zone of inhibition at 1000 µg/mL (S.aureus UC 80; [8]): 37 mm; MIC S.aureus UC-76 (S.aureus UC-76; BHI broth, sensitive strain): 0.125 µg/mL (≈ 0.242 µM); MIC S.pyrogenes UC-152 (S.pyrogenes UC-152; BHI broth): 62.5 µg/mL (≈ 121 µM)
8 | 500 (≈ 968 µM) | 500 (≈ 968 µM) | > 500 | 500 (≈ 968 µM) | COC1CC2C=CC3C4OC2(C(C)=CC(C)C(C(C)O)OC1=O)C3C(OC(=O)c1ccco1)C(C)C4O (stereo not shown) [U-60,905, 11-O--Furoyl-] | 17 |  |  |  | 
9 |  |  |  |  | COC1CC2C=CC3C4OC2(C(C)=CC(C)C(C(C)O)OC1=O)C3C(O)C(C)C4OC(=O)c1ccc(Br)o1 (stereo not shown) [U-61,463, 9-O--5-Bromofuroyl-] | 35 | 0 |  |  | 
10 | > 125 | > 125 | > 125 | > 125 | COC1CC2C=CC3C4OC2(C(C)=CC(C)C(C(C)O)OC1=O)C3C(O)C(C)C4OC(=O)c1cnccn1 (stereo not shown) [U-61,264, 9-O--Pyrrazine-2-carbonyl] | 27 |  |  |  | 

Row | Structure (SMILES) | MIC (S.aureus UC-570; [4]) [µg/mL] | MIC (S.aureus UC-76; [5]) [µg/mL] | MIC (S.pyrogenes UC-152; [6]) [µg/mL] | MIC (S.aureus UC-746; [7]) [µg/mL] | zone of inhibition at 1000 µg/mL (S.lutea UC-130; [2]) [mm] | zone of inhibition at 1000 µg/mL (S.aureus UC 80; [3]) [mm] | MIC (S.aureus UC-76; [10]) [µg/mL] | MIC (S.pyrogenes UC-152; [11]) [µg/mL] | other results
11 | COC1CC2C=CC3C4OC2(C(C)=CC(C)C(C(C)O)OC1=O)C3C(O)C(C)C4OC(=O)c1ccc(C)[nH]1 (stereo not shown) [U-61,265, 9-O--5-Methylpyrrole-2-carbonyl] | 31.2 (≈ 58.9 µM) | 31.2 (≈ 58.9 µM) | 125 (≈ 236 µM) | 31.2 (≈ 58.9 µM) | 30 | 20 |  |  | 
12 | COC1CC2C=CC3C4OC2(C(C)=CC(C)C(C(C)O)OC1=O)C3C(O)C(C)C4OC(=O)[C@@H]1CCCN1 (stereo partly drawn) [U-60,933, 9-O--L-Pyrolyl-] | 62.5 (≈ 120 µM) | 31.2 (≈ 60 µM) | > 250 | 62.5 (≈ 120 µM) | 38 | 16 |  |  | 
